Experimental data published in patent US11179383B2 (Gilead Sciences, Inc., priority 2018, dated 2021).
pEC50: −log10 of the molar value.

Molecular target: T1, α4β7 integrin (Homo sapiens, UniProt P13612+P26010)
T1 construct: monitoring the capture of α4β7 integrin expressing cells on a recombinant MadCAM-1 extracellular domain-coated plate; endogenous in cells; host or cells: RPMI8866 cells
T1 sequence (P13612 34-1032): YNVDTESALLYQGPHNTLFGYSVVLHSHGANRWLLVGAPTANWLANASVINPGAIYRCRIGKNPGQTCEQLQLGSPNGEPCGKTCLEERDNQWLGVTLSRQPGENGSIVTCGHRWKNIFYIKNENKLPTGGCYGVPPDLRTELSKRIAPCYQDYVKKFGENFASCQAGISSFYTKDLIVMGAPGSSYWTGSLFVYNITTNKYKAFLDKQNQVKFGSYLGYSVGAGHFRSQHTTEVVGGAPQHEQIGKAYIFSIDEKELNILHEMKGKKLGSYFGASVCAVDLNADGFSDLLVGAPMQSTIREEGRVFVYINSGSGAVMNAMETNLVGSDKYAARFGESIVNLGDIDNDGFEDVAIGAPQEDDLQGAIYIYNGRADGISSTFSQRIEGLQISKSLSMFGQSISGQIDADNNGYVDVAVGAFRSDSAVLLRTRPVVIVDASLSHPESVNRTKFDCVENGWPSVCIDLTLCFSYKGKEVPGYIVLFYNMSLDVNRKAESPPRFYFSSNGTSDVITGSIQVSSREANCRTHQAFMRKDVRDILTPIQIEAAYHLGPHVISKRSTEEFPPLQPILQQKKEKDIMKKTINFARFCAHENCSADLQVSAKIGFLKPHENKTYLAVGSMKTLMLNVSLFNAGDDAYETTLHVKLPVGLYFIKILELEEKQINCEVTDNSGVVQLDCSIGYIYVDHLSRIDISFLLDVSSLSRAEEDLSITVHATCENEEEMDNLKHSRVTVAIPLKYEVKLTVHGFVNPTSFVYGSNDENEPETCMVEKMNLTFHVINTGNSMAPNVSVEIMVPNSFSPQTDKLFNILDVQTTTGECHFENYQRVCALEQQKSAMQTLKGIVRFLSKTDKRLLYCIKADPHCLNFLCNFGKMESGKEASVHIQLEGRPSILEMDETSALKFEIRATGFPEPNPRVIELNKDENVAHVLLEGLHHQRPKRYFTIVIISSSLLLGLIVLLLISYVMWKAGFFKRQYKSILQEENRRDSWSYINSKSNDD
T1 sequence (P26010 20-798): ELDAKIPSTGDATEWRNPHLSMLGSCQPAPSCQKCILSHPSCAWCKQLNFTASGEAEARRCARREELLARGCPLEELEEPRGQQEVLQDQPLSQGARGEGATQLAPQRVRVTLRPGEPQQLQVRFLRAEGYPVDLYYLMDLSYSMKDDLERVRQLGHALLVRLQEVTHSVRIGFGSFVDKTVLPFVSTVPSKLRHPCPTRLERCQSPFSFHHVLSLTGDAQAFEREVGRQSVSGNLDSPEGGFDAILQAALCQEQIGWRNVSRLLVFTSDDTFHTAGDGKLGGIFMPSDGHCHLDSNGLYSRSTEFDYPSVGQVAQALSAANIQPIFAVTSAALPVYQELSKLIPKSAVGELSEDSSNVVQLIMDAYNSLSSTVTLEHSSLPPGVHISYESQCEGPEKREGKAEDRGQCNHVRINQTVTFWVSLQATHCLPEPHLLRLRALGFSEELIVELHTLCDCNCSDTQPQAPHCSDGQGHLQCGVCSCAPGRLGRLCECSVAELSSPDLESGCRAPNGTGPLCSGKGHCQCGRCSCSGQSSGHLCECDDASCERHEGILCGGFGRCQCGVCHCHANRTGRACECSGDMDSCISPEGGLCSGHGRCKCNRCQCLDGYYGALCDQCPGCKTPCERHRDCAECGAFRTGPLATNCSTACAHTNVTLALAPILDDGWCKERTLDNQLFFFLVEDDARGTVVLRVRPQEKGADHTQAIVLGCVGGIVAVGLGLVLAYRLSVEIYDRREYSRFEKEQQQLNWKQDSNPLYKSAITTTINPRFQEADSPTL
Experiment: α4β7 Integrin Cell Capture Assay
Type: cell-based
Conditions: capture of α4β7 integrin expressing RPMI8866 cells on recombinant MadCAM-1 extracellular domain-coated plate; DMEM+0.5% FBS+0.5 mM MnCl2; read-out: EC50 α4β7
Summary of the method: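 RPMI8866 cells in DMEM + 0.5% FBS + 0.5 mM MnCl2 preincubated with compound 1 h at 37 °C, then allowed to bind 30 min at 37 °C to plates coated with MAdCAM-1 extracellular domain (1.0 μg/mL). Cells fixed with glutaraldehyde, Hoechst-stained, imaged and bound cells counted; EC50 from cell count versus concentration.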

## CCOCc1cc(OC)c(-c2ccc(C[C@H](NC(=O)c3c(F)cc(NS(=O)(=O)c4ccc(-c5ccnc(F)c5)cc4)cc3F)C(=O)O)c3nccnc23)c(OC)c1 [Example 155, (S)-2-(2,6-difluoro-4-((4-(2-fluoropyridin-4-yl)phenyl)sulfonamido)benzamido)-3-(8-(4-(ethoxymethyl)-2,6-dimethoxyphenyl)quinoxalin-5-yl)propanoic acid]
  pEC50: 8.80

## O=C(N[C@@H](Cc1ccc(-c2nccc(Cl)c2C(F)(F)F)c2cccnc12)C(=O)O)c1c(Cl)cccc1Cl [Example 57, (S)-3-(5-(4-chloro-3-(trifluoromethyl)pyridin-2-yl)quinolin-8-yl)-2-(2,6-dichlorobenzamido)propanoic acid]
  pEC50: 7.63

## Cc1c(-c2ccc(C[C@H](NC(=O)c3c(F)cccc3F)C(=O)O)c3ncccc23)c(=O)n(C)c(=O)n1C (single isomer, unassigned) [Example 81]
  pEC50: 8.18

## COc1cccc(OC)c1-c1ccc(C[C@H](NC(=O)c2c(F)cc(NS(=O)(=O)c3ccc(-n4cncn4)cc3)cc2F)C(=O)O)c2ccccc12 [Example 104, (S)-2-(4-((4-(1H-1,2,4-triazol-1-yl)phenyl)sulfonamido)-2,6-difluorobenzamido)-3-(4-(2,6-dimethoxyphenyl)naphthalen-1-yl)propanoic acid]
  pEC50: 9.10

## COc1cc(F)c(F)cc1-c1ccc(C[C@H](NC(=O)c2c(Cl)cccc2Cl)C(=O)O)c2nccc(C)c12 (single isomer, unassigned) [Example 98]
  pEC50: 6.33

## O=C(N[C@@H](Cc1ccc(-c2ncc3ccccc3c2Br)c2ccccc12)C(=O)O)c1c(F)cccc1F [Example 114, (S)-3-(4-(4-bromoisoquinolin-3-yl)naphthalen-1-yl)-2-(2,6-difluorobenzamido)propanoic acid]
  pEC50: 7.52

## CC[C@@H](Nc1cc(F)c(C(=O)N[C@@H](Cc2ccc(-c3c(C)c4cc(F)ccc4n(C)c3=O)c3nccnc23)C(=O)O)c(F)c1)C(F)(F)F [Example 158, (S)-2-(2,6-difluoro-4-(((R)-1,1,1-trifluorobutan-2-yl)amino)benzamido)-3-(8-(6-fluoro-1,4-dimethyl-2-oxo-1,2-dihydroquinolin-3-yl)quinoxalin-5-yl)propanoic acid]
  pEC50: 9.40

## Cc1nn(C)nc1-c1ccc(C[C@H](NC(=O)c2c(Cl)cccc2Cl)C(=O)O)c2ncccc12 [Example 26, (S)-2-(2,6-dichlorobenzamido)-3-(5-(2,5-dimethyl-2H-1,2,3-triazol-4-yl)quinolin-8-yl)propanoic acid]
  pEC50: 6.54

## O=C(N[C@@H](Cc1ccc(-c2cc(F)c(F)cc2OC2CC2)c2ccccc12)C(=O)O)c1c(Cl)cccc1Cl [Example 116, (S)-3-(4-(2-cyclopropoxy-4,5-difluorophenyl)naphthalen-1-yl)-2-(2,6-dichlorobenzamido)propanoic acid]
  pEC50: 7.14

## COc1cc(F)cc(C(F)(F)F)c1-c1ccc(C[C@H](NC(=O)c2c(Cl)cccc2Cl)C(=O)O)c2ncccc12 (single isomer, unassigned) [Example 49]
  pEC50: 7.34

## Cc1c(-c2ccc(C[C@H](NC(=O)c3c(F)cccc3F)C(=O)O)c3ccccc23)c(=O)n(C)c2ccccc12 (single isomer, unassigned) [Example 119]
  pEC50: 7.08

## Cn1cc(-c2ccc(C[C@H](NC(=O)c3c(F)cccc3F)C(=O)O)c3ncccc23)c(=O)n(C)c1=O [Example 80, (S)-2-(2,6-difluorobenzamido)-3-(5-(1,3-dimethyl-2,4-dioxo-1,2,3,4-tetrahydropyrimidin-5-yl)quinolin-8-yl)propanoic acid]
  pEC50: 7.77

## Cn1c(=O)c(-c2ccc(C[C@H](NC(=O)c3c(Cl)cccc3Cl)C(=O)O)c3ccccc23)cc2ccccc21 [Example 108, (S)-2-(2,6-dichlorobenzamido)-3-(4-(1-methyl-2-oxo-1,2-dihydroquinolin-3-yl)naphthalen-1-yl)propanoic acid]
  pEC50: 8.47

## CCOCc1cc(OC)c(-c2ccc(C[C@H](NC(=O)c3c(F)cccc3F)C(=O)O)c3ncccc23)c(OC)c1 [Example 78, (S)-2-(2,6-difluorobenzamido)-3-(5-(4-(ethoxymethyl)-2,6-dimethoxyphenyl)quinolin-8-yl)propanoic acid]
  pEC50: 7.91

## Cc1cc(C(F)(F)F)c(-c2ccc(C[C@H](NC(=O)c3c(F)cc(N4CCOC[C@@H]4C(F)(F)F)cc3F)C(=O)O)c3ccccc23)c(=O)n1C (single isomer, unassigned) [Example 129]
  pEC50: 10.00

## O=C(N[C@@H](Cc1ccc(-c2cccc3c2COCC3)c2cccnc12)C(=O)O)c1c(Cl)cccc1Cl [Example 20, (S)-2-(2,6-dichlorobenzamido)-3-(5-(isochroman-8-yl)quinolin-8-yl)propanoic acid]
  pEC50: 6.43

## Cc1cc(C(F)(F)F)c(-c2ccc(C[C@H](NC(=O)c3c(F)cc(N4CCOC[C@@H]4C(F)(F)F)cc3F)C(=O)O)c3ncccc23)c(=O)n1C (single isomer, unassigned) [Example 86]
  pEC50: 9.52

## Cc1c(-c2ccc(C[C@H](NC(=O)c3c(Cl)cccc3Cl)C(=O)O)c3ccccc23)c(=O)n(C)c(=O)n1C (single isomer, unassigned) [Example 110]
  pEC50: 7.85

## CCOCc1cc(OC)c(-c2ccc(C[C@H](NC(=O)c3c(F)cccc3F)C(=O)O)c3nccc(Cl)c23)c(OC)c1 [Example 93, (S)-3-(4-chloro-5-(4-(ethoxymethyl)-2,6-dimethoxyphenyl)quinolin-8-yl)-2-(2,6-difluorobenzamido)propanoic acid]
  pEC50: 7.57

## COc1c(F)cc(F)cc1-c1ccc(C[C@H](NC(=O)c2c(Cl)cccc2Cl)C(=O)O)c2ncccc12 [Example 42, (S)-2-(2,6-dichlorobenzamido)-3-(5-(3,5-difluoro-2-methoxyphenyl)quinolin-8-yl)propanoic acid]
  pEC50: 6.82

## COc1cc(F)cc(Cl)c1-c1ccc(C[C@H](NC(=O)c2c(Cl)cccc2Cl)C(=O)O)c2ncccc12 [Example 36, (2S)-3-(5-(2-chloro-4-fluoro-6-methoxyphenyl)quinolin-8-yl)-2-(2,6-dichlorobenzamido)propanoic acid]
  pEC50: 6.94

## COc1cc(F)c(F)cc1-c1ccc(C[C@H](NC(=O)c2c(Cl)cccc2Cl)C(=O)O)c2nccc(C)c12 (single isomer, unassigned) [Example 99]
  pEC50: 7.30

## Cc1c(-c2ccc(C[C@H](NC(=O)c3c(Cl)cccc3Cl)C(=O)O)c3ncccc23)ncc2ccccc12 [Example 40, (S)-2-(2,6-dichlorobenzamido)-3-(5-(4-methylisoquinolin-3-yl)quinolin-8-yl)propanoic acid]
  pEC50: 7.49

## COc1cc(F)c(C)cc1-c1ccc(C[C@H](NC(=O)c2c(Cl)cccc2Cl)C(=O)O)c2ncccc12 [Example 56, (S)-2-(2,6-dichlorobenzamido)-3-(5-(4-fluoro-2-methoxy-5-methylphenyl)quinolin-8-yl)propanoic acid]
  pEC50: 7.16

## Cc1ccnc2c(C[C@H](NC(=O)c3c(Cl)cccc3Cl)C(=O)O)ccc(-c3cc4ccccc4n(C)c3=O)c12 [Example 100, (S)-2-(2,6-dichlorobenzamido)-3-(1,4′-dimethyl-2-oxo-1,2-dihydro-[3,5′-biquinolin]-8′-yl)propanoic acid]
  pEC50: 7.65
